Measured values: article PMC6392468, “Inhibition of lipid droplet formation by Ser/Thr protein phosphatase PPM1D inhibitor, SL-176” (PLoS ONE, 2019)

Target: T1, PPM1D (Mus musculus, UniProt Q9QZ67)
T1 construct: His-mousePPM1D (1–413)
T1 sequence (Q9QZ67 1-413): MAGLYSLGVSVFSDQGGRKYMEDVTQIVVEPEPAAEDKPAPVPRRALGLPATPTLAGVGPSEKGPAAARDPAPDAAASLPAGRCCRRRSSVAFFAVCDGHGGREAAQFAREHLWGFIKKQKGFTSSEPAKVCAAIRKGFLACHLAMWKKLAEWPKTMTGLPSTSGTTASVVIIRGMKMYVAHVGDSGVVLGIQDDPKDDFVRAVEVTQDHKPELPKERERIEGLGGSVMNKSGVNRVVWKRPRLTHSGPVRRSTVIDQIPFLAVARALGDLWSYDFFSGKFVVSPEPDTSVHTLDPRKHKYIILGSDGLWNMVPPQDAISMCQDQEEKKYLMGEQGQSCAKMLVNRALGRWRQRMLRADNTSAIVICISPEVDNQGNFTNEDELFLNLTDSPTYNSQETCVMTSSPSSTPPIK
Test: in vitro phosphatase assay, released free phosphate by BIOMOL GREEN, p53-derived peptide substrate
Assay type: biochemical

CC[Si](CC)(CC)O[C@@H]1CCC[C@@H]2[C@@H]1C[C@H](O[Si](C)(C)C(C)(C)C)C[C@@]2(C)C(=O)O [SL-176]
IC50: 112 ± 12 nM
